In patent US10219516B2, “Molecules having pesticidal utility, and intermediates, compositions, and processes, related thereto” (priority 2015, dated 2019):

Tested on: Cabbage Looper (Trichoplusia ni, TRIPNI)
Test: Bioassay on Cabbage Looper (CL), 128-well diet tray assay
Format: in vivo
Settings: Trichoplusia ni; Cabbage Looper, 128-well diet tray assay; read-out: CL rating
Summary of the method: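 Test molecule is dissolved in 90:10 acetone-water and applied at 50 μg/cm^2 onto artificial diet, then dried. One to five second-instar larvae go into each of eight wells. Trays, sealed but vented, stay at 25° C., 14:10 light-dark, five to seven days, after which mortality is averaged.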

SMILES | pest or weed control at 50 µg/cm2 [%]
O=C(Nc1ccc2nc(Cl)[nH]c2c1)c1cc(NC(=O)C2C(c3cc(Cl)cc(Cl)c3)C2(Cl)Cl)ccc1Cl (stereo not drawn) [F438, 2-Chloro-N-(2-chloro-1H-benzo[d]imidazol-6-yl)-5-(trans)-2,2-dichloro-3-(3,5-dichlorophenyl)cyclopropane-1-carboxamido)benzamide] | 50 to 100
O=C(Nc1ccc(F)cc1F)c1cc(NC(=O)[C@H]2[C@H](c3ccc(F)c(Cl)c3)C2(Cl)Cl)ccc1Cl [F533] | 50 to 100
Nc1c(F)ccc(NC(=O)c2cc(NC(=O)[C@H]3[C@H](c4ccc(Cl)c(Br)c4)C3(Cl)Cl)ccc2Cl)c1F [F579, N-(3-Amino-2,4-difluorophenyl)-5-((1R,3R)-3-(3-bromo-4-chlorophenyl)-2,2-dichlorocyclopropane-1-carboxamido)-2-chlorobenzamide] | 50 to 100

Tested on: Yellow Fever Mosquito (Aedes aegypti, AEDSAE)
Test: Bioassay on Yellow Fever Mosquito (YFM), 96-well plate larval assay
Format: in vivo
Settings: Yellow Fever Mosquito, 96-well plate larval assay
Summary of the method: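 Each well was scored for mortality after 3 days at room temperature under a non-evaporative lid. Test molecules came from DMSO masters (4000 ppm stock) diluted with water/acetone 90:10 and dispensed into six replicate plates, which were then infested with roughly 1-day-old larvae in liver-powder water.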

SMILES | YFM rating
O=C(Nc1ccc2nc(Cl)[nH]c2c1)c1cc(NC(=O)C2C(c3cc(Cl)cc(Cl)c3)C2(Cl)Cl)ccc1Cl (stereo not drawn) [F438, 2-Chloro-N-(2-chloro-1H-benzo[d]imidazol-6-yl)-5-(trans)-2,2-dichloro-3-(3,5-dichlorophenyl)cyclopropane-1-carboxamido)benzamide] | B (More than 0-Less than 80)
O=C(Nc1ccc(F)cc1F)c1cc(NC(=O)[C@H]2[C@H](c3ccc(F)c(Cl)c3)C2(Cl)Cl)ccc1Cl [F533] | A (80-100)
Nc1c(F)ccc(NC(=O)c2cc(NC(=O)[C@H]3[C@H](c4ccc(Cl)c(Br)c4)C3(Cl)Cl)ccc2Cl)c1F [F579, N-(3-Amino-2,4-difluorophenyl)-5-((1R,3R)-3-(3-bromo-4-chlorophenyl)-2,2-dichlorocyclopropane-1-carboxamido)-2-chlorobenzamide] | A (80-100)

Tested on: Green Peach Aphid (Myzus persicae, MYZUPE)
Test: Bioassay on Green Peach Aphid (GPA), foliar spray on infested cabbage seedlings
Format: in vivo
Settings: 72 h, Green Peach Aphid, foliar spray on cabbage seedlings, read-out: GPA rating
Summary of the method: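 Cabbage seedlings (2-3 true leaves) infested with 20-50 wingless adult and nymph aphids one day before treatment; sprayed to runoff at 200 ppm in 0.025% Tween 20 water with 20% acetone/methanol, four pots per treatment. Held three days at about 25° C; live aphids counted, % control by Abbott's correction versus solvent check.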

SMILES | pest or weed control at 200 µg/mL [%]
O=C(Nc1ccc2nc(Cl)[nH]c2c1)c1cc(NC(=O)C2C(c3cc(Cl)cc(Cl)c3)C2(Cl)Cl)ccc1Cl (stereo not drawn) [F438, 2-Chloro-N-(2-chloro-1H-benzo[d]imidazol-6-yl)-5-(trans)-2,2-dichloro-3-(3,5-dichlorophenyl)cyclopropane-1-carboxamido)benzamide] | 0 to 80
O=C(Nc1ccc(F)cc1F)c1cc(NC(=O)[C@H]2[C@H](c3ccc(F)c(Cl)c3)C2(Cl)Cl)ccc1Cl [F533] | 80 to 100
Nc1c(F)ccc(NC(=O)c2cc(NC(=O)[C@H]3[C@H](c4ccc(Cl)c(Br)c4)C3(Cl)Cl)ccc2Cl)c1F [F579, N-(3-Amino-2,4-difluorophenyl)-5-((1R,3R)-3-(3-bromo-4-chlorophenyl)-2,2-dichlorocyclopropane-1-carboxamido)-2-chlorobenzamide] | 80 to 100

Tested on: not given
Test: not given
Settings: not given

SMILES | melting point
O=C(O)C1C(c2cc(Cl)cc(C(F)(F)F)c2)C1(Cl)Cl (centres unmarked) | 113 to 115 °C
O=C(O)C1C(c2cc(Cl)cc(Br)c2)C1(Cl)Cl (centres unmarked) | 161 to 163 °C
O=C(O)C1C(c2cc(F)cc(Cl)c2)C1(Cl)Cl (centres unmarked) | 138 to 140 °C
Cc1cc(Cl)cc(C2C(C(=O)O)C2(Cl)Cl)c1 (centres unmarked) | 124 to 126 °C
Cc1c(Cl)cc(C2C(C(=O)O)C2(Cl)Cl)cc1Cl (centres unmarked) | 181 to 183 °C
Cc1cc(C2C(C(=O)O)C2(Cl)Cl)cc(Cl)c1Cl (centres unmarked) | 157 to 159 °C
O=C(O)C1C(c2ccc(C(F)(F)C(F)(F)F)cc2)C1(Cl)Cl (centres unmarked) | 116 to 118 °C
CCOc1ccc(C2C(C(=O)O)C2(Cl)Cl)cc1 (centres unmarked) | 129 to 130 °C
O=C(O)C1C(c2cc(F)c(Br)c(F)c2)C1(Cl)Cl (centres unmarked) | 178.3 to 188.6 °C
Cc1ccc([N+](=O)[O-])cc1NC(=O)OC(C)(C)C | 137 to 145 °C
Cc1cc([N+](=O)[O-])ccc1N(C)C(=O)OC(C)(C)C | 98 to 101 °C
Cc1ccc([N+](=O)[O-])cc1N(C)C(=O)OC(C)(C)C | 57 to 60 °C
CC(C)(C)OC(=O)N(C(=O)OC(C)(C)C)c1c(N)cc(F)cc1F | 102 to 107 °C
CC(C)(C)OC(=O)N(C(=O)OC(C)(C)C)c1ccc(F)cc1N | 104 to 115 °C
COc1c(Cl)cc(C2C(C(=O)O)C2(Cl)Cl)cc1Cl (centres unmarked) | 161 to 164 °C
N#Cc1cc(Cl)cc(C2C(C(=O)O)C2(Cl)Cl)c1 (centres unmarked) | 173 to 175 °C
O=C(O)C1C(c2cccc(C(F)(F)F)c2)C1(Cl)Cl (centres unmarked) | 86 to 88 °C
O=C(O)C1C(c2cc(Cl)c(Cl)cc2Cl)C1(Cl)Cl (centres unmarked) | 189 to 192 °C
O=C(O)C1C(c2cc(C(F)(F)F)cc(C(F)(F)F)c2)C1(Cl)Cl (centres unmarked) | 112 to 114 °C
O=C(O)C1C(c2cc(Br)cc(Br)c2)C1(Cl)Cl (centres unmarked) | 157 to 159 °C

Results, then the molecule that gave them:

melting point | SMILES
115 to 117 °C | Nc1ccc(OC(F)(F)F)c(C(=O)Nc2ccc(F)cc2)c1
133 to 136 °C | Nc1cc(Cl)cc(C(=O)Nc2ccc(F)cc2)c1
140 to 142 °C | O=C(O)C1C(c2ccc(Cl)c(F)c2)C1(Cl)Cl (centres unmarked)
169 to 170 °C | O=C(Nc1ccc(F)cc1)c1cccc([N+](=O)[O-])n1
136 to 138 °C | Cc1ccc(C(=O)Nc2ccc(F)cc2)cc1[N+](=O)[O-]
175 to 177 °C | O=C(Nc1ccc(F)cc1)c1cc([N+](=O)[O-])ccc1OC(F)(F)F
209 to 210 °C | O=C(Nc1ccc(F)cc1)c1cc(Cl)cc([N+](=O)[O-])c1
227 to 231 °C | COc1c(Cl)cc(C2C(C(=O)Nc3ccc(Cl)c(C(=O)O)c3)C2(Cl)Cl)cc1Cl (centres unmarked)
231 to 235 °C | O=C(O)c1cc(NC(=O)C2C(c3cc(Cl)cc(Cl)c3)C2(Cl)Cl)cc(Cl)c1Cl (centres unmarked)
263 to 266 °C | O=C(O)c1cc(NC(=O)C2C(c3cc(Cl)cc(Cl)c3)C2(Cl)Cl)c(Cl)cc1Cl (centres unmarked)
227 °C (dec.) | Nc1ccc(Cl)c(C(=O)Nc2ccc(-c3ncco3)cc2)c1
50 to 81 °C | Nc1ccc(Cl)c(C(=O)Nc2ccc(-n3cccn3)cc2)c1
129 to 131 °C | CCc1ccc(N)cc1C(=O)Nc1ccc(F)cc1
143 to 161 °C | Cc1cc(NC(=O)OC(C)(C)C)ccc1NC(=O)c1cccc(N)c1
195 to 200 °C | Cc1cc(NC(=O)OC(C)(C)C)ccc1NC(=O)c1cc([N+](=O)[O-])ccc1Cl
192 to 202 °C | O=C(Nc1ccc(F)c(C(F)(F)F)c1)c1cc([N+](=O)[O-])ccc1Cl
200 to 205 °C | O=C(Nc1ccc(-n2cccn2)cc1)c1cc([N+](=O)[O-])ccc1Cl
192 to 194 °C | O=C(Nc1ccc(-c2ncco2)cc1)c1cc([N+](=O)[O-])ccc1Cl
104 to 109.3 °C | COc1ccc(C2C(c3cc(F)c(Br)c(F)c3)C2(Cl)Cl)cc1 (centres unmarked)
158 to 160 °C | C=Cc1ccc([N+](=O)[O-])cc1C(=O)Nc1ccc(F)cc1
91 to 94 °C | COc1ccc(/C=C/c2ccc(Cl)c(Cl)c2)cc1
134 to 136 °C | O=C(O)C1C(c2ccc(OC(F)(F)F)c(Cl)c2)C1(Cl)Cl (centres unmarked)
121 to 123 °C | O=C(O)C1C(c2ccc(F)c(Cl)c2)C1(Cl)Cl (centres unmarked) [C16]
119 to 121 °C | O=C(O)C1C(c2ccc(F)c(Cl)c2)C1(Cl)Cl (centres unmarked) [C420]

Tested on: Beet Armyworm (Spodoptera exigua, LAPHEG)
Test: Bioassay on Beet Armyworm (BAW), 128-well diet tray assay
Format: in vivo
Settings: Beet Armyworm, 128-well diet tray assay, read-out: BAW rating
Summary of the method: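 Test molecule dissolved in acetone-water 90:10 is applied at 50 μg/cm^2 onto artificial diet and allowed to dry. Second instar larvae, one to five per well, are then added, and trays are vented and kept at 25° C. for five to seven days before mortality is scored.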

SMILES | pest or weed control at 50 µg/cm2 [%]
O=C(Nc1ccc2nc(Cl)[nH]c2c1)c1cc(NC(=O)C2C(c3cc(Cl)cc(Cl)c3)C2(Cl)Cl)ccc1Cl (stereo not drawn) [F438, 2-Chloro-N-(2-chloro-1H-benzo[d]imidazol-6-yl)-5-(trans)-2,2-dichloro-3-(3,5-dichlorophenyl)cyclopropane-1-carboxamido)benzamide] | 50 to 100
O=C(Nc1ccc(F)cc1F)c1cc(NC(=O)[C@H]2[C@H](c3ccc(F)c(Cl)c3)C2(Cl)Cl)ccc1Cl [F533] | 50 to 100
Nc1c(F)ccc(NC(=O)c2cc(NC(=O)[C@H]3[C@H](c4ccc(Cl)c(Br)c4)C3(Cl)Cl)ccc2Cl)c1F [F579, N-(3-Amino-2,4-difluorophenyl)-5-((1R,3R)-3-(3-bromo-4-chlorophenyl)-2,2-dichlorocyclopropane-1-carboxamido)-2-chlorobenzamide] | 50 to 100
